Experimental data as given in paper PMC6212834 (Nucleic Acids Research, 2018).

Molecular target: T1, Csx1 (SisCsx1, SiCsx1) (Saccharolobus islandicus, UniProt F0NE21)
T1 sequence (F0NE21 1-454): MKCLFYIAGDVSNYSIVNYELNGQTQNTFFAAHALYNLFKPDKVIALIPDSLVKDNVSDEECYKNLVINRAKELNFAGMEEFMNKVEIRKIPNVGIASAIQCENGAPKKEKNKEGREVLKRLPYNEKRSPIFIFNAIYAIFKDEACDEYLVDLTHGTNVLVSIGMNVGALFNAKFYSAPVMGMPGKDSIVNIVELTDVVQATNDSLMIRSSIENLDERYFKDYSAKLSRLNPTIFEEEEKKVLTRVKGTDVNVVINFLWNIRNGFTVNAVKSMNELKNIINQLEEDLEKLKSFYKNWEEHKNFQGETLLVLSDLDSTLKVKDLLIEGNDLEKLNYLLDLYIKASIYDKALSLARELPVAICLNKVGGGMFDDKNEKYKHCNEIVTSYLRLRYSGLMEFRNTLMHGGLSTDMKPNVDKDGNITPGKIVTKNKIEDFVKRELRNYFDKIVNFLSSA
Assay: RNA
Assay type: biochemical

Question: For `Nc1ncnc2c1ncn2[C@@H]1O[C@@H]2COP(=O)(O)O[C@H]3[C@@H](O)[C@H](n4cnc5c(N)ncnc54)O[C@@H]3COP(=O)(O)O[C@H]3[C@@H](O)[C@H](n4cnc5c(N)ncnc54)O[C@@H]3COP(=O)(O)O[C@H]3[C@@H](O)[C@H](n4cnc5c(N)ncnc54)O[C@@H]3COP(=O)(O)O[C@H]2[C@H]1O` [c-A4], which EC50 is on record?
Answer: Its EC50 is 7.4 nM.
